The record followed here is US20260078130A1, “NAMPT MODULATORS, PREPARATIONS, AND USES THEREOF” (SIRONAX LTD., priority 2022, published 2026).

Read-outs that look alike come from different tables or passages of the source. Where only a bound is given, the exact number is not on record here.

The test system of assay [1] is endogenous NAMPT in U2OS cells. Briefly: Cellular NAD+ modulation assay (NAD/NADH-Glo, U2OS cells). The assay is classed as cell-based. The following applies: Homo sapiens; for maximal fold induction: read-out: Cellular Emax. An outline of the steps:
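Endogenous NAMPT stimulation in U2OS cells treated with compound dilution series for 24 h at 37 °C. Cells lysed with DTAB base, acid-treated 15 min at 60 °C, neutralized, NAD+ read by NAD/NADH-Glo luminescence after 40 min at room temperature. EC50 and Emax (fold over DMSO) derived.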

The target in assay [2] is T1, human enzyme NAMPT (full length) (Homo sapiens, UniProt P43490).
T1 construct: human enzyme NAMPT (full length)
T1 sequence (P43490 whole entry): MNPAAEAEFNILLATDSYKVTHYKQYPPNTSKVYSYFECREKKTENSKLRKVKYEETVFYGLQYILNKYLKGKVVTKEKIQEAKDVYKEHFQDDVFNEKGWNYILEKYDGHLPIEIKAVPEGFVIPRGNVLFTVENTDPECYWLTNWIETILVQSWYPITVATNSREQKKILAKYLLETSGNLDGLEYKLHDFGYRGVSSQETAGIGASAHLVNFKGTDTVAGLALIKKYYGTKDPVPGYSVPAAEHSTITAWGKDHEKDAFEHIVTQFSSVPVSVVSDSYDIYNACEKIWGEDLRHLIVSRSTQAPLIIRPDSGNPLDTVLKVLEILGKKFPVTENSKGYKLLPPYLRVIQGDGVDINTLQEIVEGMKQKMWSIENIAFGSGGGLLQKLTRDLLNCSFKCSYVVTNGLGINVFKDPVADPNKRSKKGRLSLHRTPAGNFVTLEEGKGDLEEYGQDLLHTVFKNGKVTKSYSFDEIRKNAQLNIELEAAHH
Briefly: NMN fluorescence biochemical assay (stimulation of NMN synthesis by NAMPT). As to conditions: for EC50: concentration giving half-maximal activation, read-out: Enzymatic EC50; for Enzymatic Emax: fold change of maximal activation compared to DMSO. An outline of the steps:
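Full-length human NAMPT (100 nM) was preincubated 15 min at 37 °C with compound in 50 mM Tris-HCl pH 7.5, 10 mM MgCl2, 2 mM DTT, then reacted 1 h at 37 °C with 50 μM NAM, 100 μM PRPP, 4 mM ATP (stated solution concentrations). NMN was derivatised with acetophenone/KOH then formic acid and read at Ex/Em 382/445 nm; EC50 and Emax (fold over DMSO) reported.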

Where [3] appears, read: 24 hours incubation, cellular NAD+.
Where [4] appears, read: NMN fluorescence assay, purified human NAMPT 100 nM.
Where [5] appears, read: 24 hours incubation with compound.
Setting [6] is: NMN synthesis by purified human NAMPT (100 nM).

`Cn1ncc(Cl)c1CC1c2ccccc2C(=O)N1C[C@]1(F)C[C@@]2(CNC(=O)O2)C1` (some centres unmarked) [Compound 487, (2r,4r)-2-((1-((4-chloro-1-methyl-1H-pyrazol-5-yl)methyl)-3-oxoisoindolin-2-yl)methyl)-2-fluoro-5-oxa-7-azaspiro[3.4]octan-6-one]: the EC50 is below 0.5 µM in assay [1] (setting [3]) and 0.5 to 5 µM in assay [2] (setting [4]). Also, in assay [1] (setting [3]), the maximal fold induction was above 1.5. Moreover, the “Enzymatic Emax” value in assay [2] is “B (3≥B>2)”.

On to `Cc1ccnc(C#N)c1CC1c2cc(C#N)ccc2C(=O)N1Cc1ccc2[nH]nnc2c1` (centres unmarked) [Compound 359, 2-((1H-benzo[d][1,2,3]triazol-5-yl)methyl)-3-((2-cyano-4-methylpyridin-3-yl)methyl)-1-oxoisoindoline-5-carbonitrile], for which, in assay [1] (setting [3]), the EC50 lay in the range of 0.5 to 5 µM and the maximal fold induction was above 1.5. Moreover, the EC50 in assay [2] (setting [4]) is below 0.5 µM. Moreover, the “Enzymatic Emax” value in assay [2] is given as “B (3≥B>2)”.

For the compound `O=C1c2ccccc2C(Cc2ncccc2C(F)F)N1Cc1ccc2[nH]c(=O)oc2c1` (centres unmarked) [Compound 191, 6-((1-((3-(difluoromethyl)pyridin-2-yl)methyl)-3-oxoisoindolin-2-yl)methyl)benzo[d]oxazol-2(3H)-one], in assay [1] (setting [5]), the EC50 lay within 0.5 to 5 µM and the maximal fold induction is above 1.5. The EC50 in assay [2] (setting [6]) was in the range of 0.5 to 5 µM. Besides, the “Enzymatic Emax” value in assay [2] was “A (A>3)”.

Turning to `CC1c2ccccc2C(=O)N1Cc1cc(F)c2[nH]c(=O)oc2c1` (centres unmarked) [Compound 89, 4-fluoro-6-((1-methyl-3-oxoisoindolin-2-yl)methyl)benzo[d]oxazol-2(3H)-one], in assay [1] (setting [5]), the EC50 was 5 to 50 µM and the maximal fold induction was in the range of 1.2 to 1.5. Also, the EC50 in assay [2] (setting [6]) was at least 5 µM. The “Enzymatic Emax” value in assay [2] is on record as “B (3≥B>2)”.

`Cn1ncc(Cl)c1CC1c2ccccc2C(=O)N1Cc1cn[nH]c1` (centres unmarked) [Compound 629, 2-((1H-pyrazol-4-yl)methyl)-3-((4-chloro-1-methyl-1H-pyrazol-5-yl)methyl)isoindolin-1-one]: in assay [1] (setting [3]), the EC50 is below 0.5 µM and the maximal fold induction lay in the range of 1.2 to 1.5. Moreover, in assay [2] (setting [4]), the EC50 was below 0.5 µM. Besides, the “Enzymatic Emax” value in assay [2] is given as “B (3≥B>2)”.

`Cn1ncc(Cl)c1CC1c2ccccc2C(=O)N1C[C@@H]1CC1c1c[nH]nn1` (stereo in doubt) [Compound 548, trans 2-((2-(1H-1,2,3-triazol-4-yl)cyclopropyl)methyl)-3-((4-chloro-1-methyl-1H-pyrazol-5-yl)methyl)isoindolin-1-one]: in assay [1] (setting [3]), the EC50 is below 0.5 µM and the maximal fold induction was above 1.5. Also, the “Enzymatic Emax” value in assay [2] is recorded as “B (3≥B>2)”.

Consider `Cc1ccccc1CC1c2ccncc2C(=O)N1Cc1ccc2[nH]c(=O)oc2c1` (centres unmarked) [Compound 168, 6-((1-(2-methylbenzyl)-3-oxo-1,3-dihydro-2H-pyrrolo[3,4-c]pyridin-2-yl)methyl)benzo[d]oxazol-2(3H)-one], for which the EC50 in assay [1] (setting [5]) and in assay [2] (setting [6]) was 0.5 to 5 µM in each case. In addition, in assay [1] (setting [5]), the maximal fold induction was above 1.5. Besides, the “Enzymatic Emax” value in assay [2] is reported as “A (A>3)”.

With `Cn1c2ccccc2c(=O)n1Cc1ccc(O)cc1` [Compound 23, 2-(4-hydroxybenzyl)-1-methyl-1,2-dihydro-3H-indazol-3-one], in assay [1] (setting [5]), the EC50 is 0.5 to 5 µM and the maximal fold induction was above 1.5. Further, the EC50 in assay [2] (setting [6]) is at least 5 µM. In addition, the “Enzymatic Emax” value in assay [2] is “A (A>3)”.

`NC(=O)C1CC(CN2C(=O)c3ccccc3C2Cc2ncccc2Br)C1` (centres unmarked) [Compound 404, 3-((1-((3-bromopyridin-2-yl)methyl)-3-oxoisoindolin-2-yl)methyl)cyclobutane-1-carboxamide]: in assay [1] (setting [3]), the concentration giving a half-maximal response (EC50) was below 0.5 µM and the maximal fold induction was above 1.5. The EC50 in assay [2] (setting [4]) was below 0.5 µM. Moreover, the “Enzymatic Emax” value in assay [2] is “B (3≥B>2)”.

`COCc1ccc2c(c1)C(Cc1c(Cl)cnn1C)N(Cc1ccc3[nH]nnc3c1)C2=O` (centres unmarked) [Compound 436, 2-((1H-benzo[d][1,2,3]triazol-5-yl)methyl)-3-((4-chloro-1-methyl-1H-pyrazol-5-yl)methyl)-5-(methoxymethyl)isoindolin-1-one]: in assay [1] (setting [3]), the EC50 was below 0.5 µM and the maximal fold induction is above 1.5. In addition, the 50% effective concentration (EC50) in assay [2] (setting [4]) was below 0.5 µM. Moreover, the “Enzymatic Emax” value in assay [2] is on record as “A (A>3)”.

Regarding `O=c1[nH]c2ccc(Cn3ccc4ccccc4c3=O)cc2o1` [Compound 4, 6-((1-oxoisoquinolin-2(1H)-yl)methyl)benzo[d]oxazol-2(3H)-one], in assay [1] (setting [5]), the EC50 was in the range of 5 to 50 µM and the maximal fold induction was 1.2 to 1.5. Moreover, the EC50 in assay [2] (setting [6]) was at least 5 µM. The “Enzymatic Emax” value in assay [2] is “B (3≥B>2)”.

`Cn1ncc(Cl)c1CC1c2cc(CN3CCCC3)ccc2C(=O)N1CC1CC2(CNC(=O)O2)C1` (centres unmarked) [Compound 462, 2-((3-((4-chloro-1-methyl-1H-pyrazol-5-yl)methyl)-1-oxo-5-(pyrrolidin-1-ylmethyl)isoindolin-2-yl)methyl)-5-oxa-7-azaspiro[3.4]octan-6-one]: the figures for the EC50 in assay [1] (setting [3]) and in assay [2] (setting [4]) were 5 to 50 µM and 0.5 to 5 µM, respectively. In addition, the maximal fold induction in assay [1] (setting [3]) is above 1.5. For the same compound, the “Enzymatic Emax” value in assay [2] is on record as “C (2≥C)”.

For the compound `Cn1ncc(Cl)c1CC1c2ccccc2C(C)(C)N1CC1CC2(CNC(=O)O2)C1` (centres unmarked) [Compound 565, 2-((3-((4-chloro-1-methyl-1H-pyrazol-5-yl)methyl)-1,1-dimethylisoindolin-2-yl)methyl)-5-oxa-7-azaspiro[3.4]octan-6-one], in assay [1] (setting [3]), the EC50 is below 0.5 µM and the maximal fold induction was above 1.5. Moreover, the EC50 in assay [2] (setting [4]) was below 0.5 µM. The “Enzymatic Emax” value in assay [2] is given as “A (A>3)”.

On to `O=C1CCc2ccccc2N1Cc1ccc(O)cc1` [Compound 3, 1-(4-hydroxybenzyl)-3,4-dihydroquinolin-2(1H)-one], for which, in assay [1] (setting [5]), the EC50 is 5 to 50 µM and the maximal fold induction fell in the range of 1.2 to 1.5. The EC50 in assay [2] (setting [6]) was at least 5 µM. Further, the “Enzymatic Emax” value in assay [2] was “B (3≥B>2)”.

Take `O=C1c2ccccc2C(Cc2cccnc2)N1Cc1ccc2[nH]c(=O)oc2c1` (centres unmarked) [Compound 137, 6-((1-oxo-3-(pyridin-3-ylmethyl)isoindolin-2-yl)methyl)benzo[d]oxazol-2(3H)-one]: in assay [1] (setting [5]), the EC50 was below 0.5 µM and the maximal fold induction was above 1.5. Further, the EC50 in assay [2] (setting [6]) was 0.5 to 5 µM. Also, the “Enzymatic Emax” value in assay [2] is “B (3≥B>2)”.

Take `O=C1c2ccccc2C(Cc2ncccc2Br)N1Cc1cc2nn[nH]c2cc1F` (centres unmarked) [Compound 271, 3-((3-bromopyridin-2-yl)methyl)-2-((6-fluoro-1H-benzo[d][1,2,3]triazol-5-yl)methyl) isoindolin-1-one]: the EC50 in assay [1] (setting [5]) and in assay [2] (setting [6]) was 0.5 to 5 µM each time. In assay [1] (setting [5]), the maximal fold induction was above 1.5. For the same compound, in assay [2], the “Enzymatic Emax” value is recorded as “A (A>3)”.

On to `Cn1ncc(Cl)c1CC1c2ccccc2C(=O)N1C/C=C/c1nn[nH]c1F` (centres unmarked) [Compound 516, (E)-3-((4-chloro-1-methyl-1H-pyrazol-5-yl)methyl)-2-(3-(5-fluoro-1H-1,2,3-triazol-4-yl)allyl)isoindolin-1-one], for which the EC50 in assay [1] (setting [3]) and in assay [2] (setting [4]) was below 0.5 µM throughout. Moreover, the maximal fold induction in assay [1] (setting [3]) is above 1.5. For the same compound, the “Enzymatic Emax” value in assay [2] is on record as “B (3≥B>2)”.

Turning to `O=C1c2cnccc2CN1Cc1ccc(O)cc1` [Compound 42, 2-(4-hydroxybenzyl)-1,2-dihydro-3H-pyrrolo[3,4-c]pyridin-3-one], the values for the EC50 in assay [1] (setting [5]) and in assay [2] (setting [6]) were 5 to 50 µM and at least 5 µM, respectively. Besides, the maximal fold induction in assay [1] (setting [5]) was above 1.5. In addition, the “Enzymatic Emax” value in assay [2] is “A (A>3)”.

As usually defined, the EC50 is the concentration giving half of the maximal effect.
